One test concerns the target T1, PDE II (Bos taurus, UniProt P14099).
T1 construct: isolated either from porcine or bovine heart myocardium; from tissue; host or cells: porcine or bovine heart myocardium
T1 sequence (P14099 1-921): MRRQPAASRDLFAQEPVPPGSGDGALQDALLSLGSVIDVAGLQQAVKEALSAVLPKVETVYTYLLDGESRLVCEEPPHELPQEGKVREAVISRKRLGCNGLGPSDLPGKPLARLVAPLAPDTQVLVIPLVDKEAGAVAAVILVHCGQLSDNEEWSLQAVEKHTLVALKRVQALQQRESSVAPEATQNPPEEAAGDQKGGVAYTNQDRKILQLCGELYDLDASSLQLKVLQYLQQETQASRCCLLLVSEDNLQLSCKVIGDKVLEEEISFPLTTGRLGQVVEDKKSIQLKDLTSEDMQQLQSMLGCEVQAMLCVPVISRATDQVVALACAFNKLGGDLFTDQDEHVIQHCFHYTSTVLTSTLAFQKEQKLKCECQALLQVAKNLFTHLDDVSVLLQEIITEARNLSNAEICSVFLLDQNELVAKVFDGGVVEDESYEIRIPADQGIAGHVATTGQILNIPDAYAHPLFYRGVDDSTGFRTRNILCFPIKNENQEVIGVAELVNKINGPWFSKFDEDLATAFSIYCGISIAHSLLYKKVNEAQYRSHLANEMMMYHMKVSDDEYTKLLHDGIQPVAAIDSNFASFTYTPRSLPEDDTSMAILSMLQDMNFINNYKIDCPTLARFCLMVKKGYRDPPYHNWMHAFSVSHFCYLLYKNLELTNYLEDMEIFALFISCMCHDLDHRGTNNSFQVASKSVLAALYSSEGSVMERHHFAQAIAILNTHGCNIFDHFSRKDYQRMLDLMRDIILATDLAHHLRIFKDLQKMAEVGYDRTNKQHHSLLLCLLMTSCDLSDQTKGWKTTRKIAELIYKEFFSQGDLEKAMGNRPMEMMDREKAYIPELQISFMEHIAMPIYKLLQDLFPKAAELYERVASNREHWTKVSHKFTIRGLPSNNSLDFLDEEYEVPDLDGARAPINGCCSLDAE
In words: Inhibition of the phosphodiesterases in vitro: cGMP-stimulated PDE II. In kind it is biochemical, porcine or bovine. The following applies: [3H]cAMP substrate, 10^-6 mol/l cGMP added; concentration at which the reaction rate is reduced by 50%. The protocol:
(§1) The cGMP-stimulated PDE II, the cGMP-inhibited PDE III and the cAMP-specific PDE IV were isolated either from porcine or bovine heart myocardium. The Ca^2+-calmodulin-stimulated PDE I was isolated from porcine aorta, porcine brain or, preferably, from bovine aorta. The cGMP-specific PDE V was obtained from porcine small intestine, porcine aorta, human platelets and, preferably, from bovine aorta. Purification was carried out by anion exchange chromatography over MonoQ® Pharmacia, essentially following the method of M. Hoey and Miles D. Houslay, Biochemical Pharmacology, Vol. 40, 193–202(1990) and C. Lugman et al., Biochemical Pharmacology, Vol. 35, 1743–1751(1986).
(§2) The enzyme activity is determined using a test mixture of 100 ml in 20 mM tris/HCI-buffer pH 7.5 containing 5 mM MgCl2, 0.1 mg/ml of bovine serum albumin and either 800Bq[^3H]cAMP or [^3H]cGMP. The final concentration of the nucleotides in question is 10^−6 mol/l. The reaction is initiated by addition of the enzyme and the amount of enzyme is such that during the incubation time of 30 min, approximately 50% of the substrate are converted. To test the cGMP-stimulated PDE II, [^3H]cAMP is used as substrate and 10^−6 mol/l of non-labelled cGMP are added to the mnixture. To test the Ca^2+-calmodulin-dependent PDE I, 1 mM of CaCl2 and […] are added to the reaction mixture. The reaction is quenched by addition of […] of acetonitrile containing 1 mM cAMP and 1 mM AMP. 100 ml of the reaction mixture are separated by HPLC, and the cleavage products are determined quantitatively on-line using a continuous scintillation counter. The substance concentration measured is the concentration at which the reaction rate is reduced by 50%. Additionally, the “phosphodiesterase [^3H] cAMP-SPA enzyme assay” and the “phosphodiesterase [^3H] cGMP-SPA enzyme assay” from Amersham Life Science were used for testing. The test was carried out according to the test protocol of the manufacturer. To determine the activity of PDE II, the [^3H]cAMP SPA assay was used, and 10^−6M cGMP were added to the reaction mixture to activate the enzyme. To measure PDE I, 10^−7M calmodulin and 1 mM CaCl2 were added to the reaction mixture. PDE V was measured using the [^3H]cGMP SPA assay.

Another test deals with PDE I. In words: Inhibition of the phosphodiesterases in vitro: Ca2+-calmodulin-stimulated PDE I. The class given is biochemical, porcine or, preferably, bovine. The note with it: concentration at which the reaction rate is reduced by 50%; CaCl2 and calmodulin added. The procedure: as §1, §2
The target of the next test is T2, PDE V (Bos taurus, UniProt Q28156).
T2 construct: Purification was carried out by anion exchange chromatography over MonoQ; from tissue; host or cells: porcine small intestine, porcine aorta, human platelets or, preferably, bovine aorta
Briefly: Inhibition of the phosphodiesterases in vitro: cGMP-specific PDE V. The following applies: [3H]cGMP substrate; concentration at which the reaction rate is reduced by 50%. In kind it is biochemical, porcine, human or, preferably, bovine. The procedure: The cGMP-stimulated PDE II, the cGMP-inhibited PDE III and the cAMP-specific PDE IV were isolated either from porcine or bovine heart myocardium. The Ca^2+-calmodulin-stimulated PDE I was isolated from porcine aorta, porcine brain or, preferably, from bovine aorta. The cGMP-specific PDE V was obtained from porcine small intestine, porcine aorta, human platelets and, preferably, from bovine aorta.
as §2

Here are results for seven compounds from patent US7122540B2, “2-Phenyl substituted imidazotriazinones as phosphodiesterase inhibitors” (Bayer HealthCare AG, priority 1997, dated 2006).

As a reminder, the IC50 is the concentration that inhibits the measured activity by half. The low end stands for higher potency, the high end for lower potency.

As for `CCCc1nc(C)c2c(=O)[nH]c(-c3cc(S(=O)(=O)N4CCN(CC)CC4)ccc3OCC)nn12` [Example 19, 2-[2-Ethoxy-5-(4-ethyl-piperazine-1-sulphonyl)-phenyl]-5-methyl-7-propyl-3H-imidazo[5,1-f][1,2,4]triazin-4-one], the IC50 against PDE II is > 1000 nM.
`CCCc1nc(C)c2c(=O)[nH]c(-c3cc(S(=O)(=O)N4CCN(CCO)CC4)ccc3OCC)nn12` [Example 27, 2-{2-Ethoxy-5-[4-(2-hydroxy-ethyl)-piperazine-1-sulphonyl]-phenyl}-5-methyl-7-propyl-3H-imidazo[5,1-f][1,2,4]triazin-4-one]: the IC50 is 200 nM in the test with PDE I, > 1000 nM on PDE II and 3 nM at PDE V.
On the same counts, the results for `CCCc1nc(C)c2c(=O)[nH]c(-c3cc(S(=O)(=O)N(CCC)CCO)ccc3OCC)nn12` [Example 275] are 50 nM, > 1000 nM and 3 nM.
Regarding `CCCc1nc(C)c2c(=O)[nH]c(-c3cc(S(=O)(=O)N(CC)CC)ccc3OCC)nn12` [Example 32, N,N-Diethyl-4-ethoxy-3-(5-methyl-4-oxo-7-propyl-3,4-dihydro-imidazo[5,1-f][1,2,4]triazin-2-yl)benzenesulphonamide], the half-maximal inhibitory concentration (IC50) was 100 nM with PDE I, > 1000 nM at PDE II and 4 nM at PDE V.
Consider `CCCc1nc(C)c2c(=O)[nH]c(-c3cc(S(=O)(=O)N4CCOCC4)ccc3OCC)nn12` [Example 260], for which the IC50 is 300 nM with PDE I, > 1000 nM on PDE II and 10 nM against PDE V.
Turning to `CCCc1nc(C)c2c(=O)[nH]c(-c3cc(S(=O)(=O)N4CCC(O)CC4)ccc3OCC)nn12` [Example 26, 2-[2-Ethoxy-5-(4-hydroxy-piperidine-1-sulphonyl)-phenyl]-5-methyl-7-propyl-3H-imidazo[5,1-f][1,2,4]triazin-4-one], the IC50 is 100 nM with PDE I, > 1000 nM against PDE II and 1 nM against PDE V.
As for `CCCc1nc(C)c2c(=O)[nH]c(-c3cc(S(=O)(=O)N4CCN(C)CC4)ccc3OCC)nn12` [Example 16, 2-[2-Ethoxy-5-(4-methyl-piperazine-1-sulphonyl)-phenyl]-5-methyl-7-propyl-3H-imidazo[5,1-f][1,2,4]triazin-4-one], the half-inhibitory concentration (IC50) is 300 nM with PDE I, > 1000 nM against PDE II and 2 nM on PDE V.
